Laboratory results from ChEMBL document CHEMBL5236660, “Design, synthesis, and biological evaluation of quinoxalinone derivatives as potent BRD4 inhibitors” (Bioorg Med Chem, 2023).

Columns and labels:
[1] = target: Bromodomain-containing protein 4 (Homo sapiens, UniProt O60885); experiment: Inhibition of BRD4 BD1 (unknown origin) by TR-FRET assay
HepG2 [2] = experiment: Antiproliferative activity against human HepG2 cells assessed as reduction in cell viability incubated for 72 hrs by MTT assay; type: functional, cell-based; details: HepG2, 72 h
HepG2 [3] = experiment: Inhibition of c-myc expression in human HepG2 cells at 0.625 to 2.5 uM incubated for 24 hrs by Western blot analysis; type: functional, cell-based; details: dose 0.625-2.5 µM
HepG2 [4] = experiment: Inhibition of colony formation in human HepG2 cells at 0.625 to 10 uM incubated for 8 days with drug replacement every 2 days by crystal violet staining based imaging analysis; type: functional, cell-based; details: dose 0.625-10 µM, time 8.0 day
HepG2 [5] = experiment: Inhibition of colony formation in human HepG2 cells at 10 uM incubated for 8 days with drug replacement every 2 days by crystal violet staining based imaging analysis; type: functional; details: HepG2, 192 h, time 8 day
HepG2 [6] = experiment: Antimigratory activity against human HepG2 cells assessed as inhibition of cell migration at 0.625 to 5 uM measured upto 24 hrs by wound healing assay; type: functional, cell-based; details: dose 0.625-5 µM
HepG2 [7] = experiment: Antimigratory activity against human HepG2 cells assessed as decrease in Snail expression at 0.625 to 2.5 uM incubated 24 hrs by Western blot analysis; type: functional, cell-based; details: dose 0.625-2.5 µM
HepG2 [8] = experiment: Antimigratory activity against human HepG2 cells assessed as increase in E-cadherin expression at 0.625 to 2.5 uM incubated 24 hrs by Western blot analysis; type: functional, cell-based; details: dose 0.625-2.5 µM
HepG2 [9] = experiment: Antimigratory activity against human HepG2 cells assessed as increase in Occludin expression at 0.625 to 2.5 uM incubated 24 hrs by Western blot analysis; type: functional, cell-based; details: dose 0.625-2.5 µM
HepG2 [10] = experiment: Induction of cell cycle arrest in human HepG2 cells assessed as accumulation at G0/G1 phase at 0.625 uM incubated for 24 hrs by flow cytometry (Rvb= 46.5%); type: functional
HepG2 [11] = experiment: Induction of cell cycle arrest in human HepG2 cells assessed as accumulation at S phase at 0.625 uM incubated for 24 hrs by flow cytometry (Rvb= 20.1%); type: functional
HepG2 [12] = experiment: Induction of cell cycle arrest in human HepG2 cells assessed as accumulation at G2/M phase at 0.625 uM incubated for 24 hrs by flow cytometry (Rvb= 14.05%); type: functional
HepG2 [13] = experiment: Induction of cell cycle arrest in human HepG2 cells assessed as accumulation at G0/G1 phase at 1.25 uM incubated for 24 hrs by flow cytometry (Rvb= 46.5%); type: functional
HepG2 [14] = experiment: Induction of cell cycle arrest in human HepG2 cells assessed as accumulation at S phase at 1.25 uM incubated for 24 hrs by flow cytometry (Rvb= 20.1%); type: functional
HepG2 [15] = experiment: Induction of cell cycle arrest in human HepG2 cells assessed as accumulation at G2/M phase at 1.25 uM incubated for 24 hrs by flow cytometry (Rvb= 14.05%); type: functional
HepG2 [16] = experiment: Induction of cell cycle arrest in human HepG2 cells assessed as accumulation at G0/G1 phase at 2.5 uM incubated for 24 hrs by flow cytometry (Rvb= 46.5%); type: functional
HepG2 [17] = experiment: Induction of cell cycle arrest in human HepG2 cells assessed as accumulation at S phase at 2.5 uM incubated for 24 hrs by flow cytometry (Rvb= 20.1%); type: functional
HepG2 [18] = experiment: Induction of cell cycle arrest in human HepG2 cells assessed as accumulation at G2/M phase at 2.5 uM incubated for 24 hrs by flow cytometry (Rvb= 14.05%); type: functional
HepG2 [19] = experiment: Induction of cell cycle arrest in human HepG2 cells assessed as accumulation at S phase at 5 uM incubated for 24 hrs by flow cytometry (Rvb= 20.1%); type: functional
HepG2 [20] = experiment: Induction of cell cycle arrest in human HepG2 cells assessed as accumulation at G2/M phase at 5 uM incubated for 24 hrs by flow cytometry (Rvb= 14.05%); type: functional
HepG2 [21] = experiment: Induction of apoptosis in human HepG2 cells assessed as necrotic cells at 0.625 uM incubated for 24 hrs by Annexin-V/PI staining based flow cytometry (Rvb=0.85%); type: functional
HepG2 [22] = experiment: Induction of apoptosis in human HepG2 cells assessed as necrotic cells at 1.25 uM incubated for 24 hrs by Annexin-V/PI staining based flow cytometry (Rvb=0.85%); type: functional
HepG2 [23] = experiment: Induction of apoptosis in human HepG2 cells assessed as necrotic cells at 5 uM incubated for 24 hrs by Annexin-V/PI staining based flow cytometry (Rvb=0.85%); type: functional
HepG2 [24] = experiment: Induction of apoptosis in human HepG2 cells assessed as early apoptotic cells at 1.25 uM incubated for 24 hrs by Annexin-V/PI staining based flow cytometry (Rvb=4.48%); type: functional
HepG2 [25] = experiment: Induction of apoptosis in human HepG2 cells assessed as early apoptotic cells at 2.5 uM incubated for 24 hrs by Annexin-V/PI staining based flow cytometry (Rvb=4.48%); type: functional
HepG2 [26] = experiment: Induction of apoptosis in human HepG2 cells assessed as late apoptotic cells at 1.25 uM incubated for 24 hrs by Annexin-V/PI staining based flow cytometry (Rvb=0.66%); type: functional
HepG2 [27] = experiment: Induction of apoptosis in human HepG2 cells assessed as late apoptotic cells at 2.5 uM incubated for 24 hrs by Annexin-V/PI staining based flow cytometry (Rvb=0.66%); type: functional
HepG2 [28] = experiment: Induction of apoptosis in human HepG2 cells assessed as late apoptotic cells at 5 uM incubated for 24 hrs by Annexin-V/PI staining based flow cytometry (Rvb=0.66%); type: functional
HepG2 [29] = experiment: Induction of apoptosis in human HepG2 cells assessed as viable cells at 1.25 uM incubated for 24 hrs by Annexin-V/PI staining based flow cytometry (Rvb=94.0%); type: functional; details: read-out: Activity
HepG2 [30] = experiment: Induction of apoptosis in human HepG2 cells assessed as viable cells at 2.5 uM incubated for 24 hrs by Annexin-V/PI staining based flow cytometry (Rvb=94.0%); type: functional; details: read-out: Activity
HepG2 [31] = experiment: Induction of apoptosis in human HepG2 cells assessed as viable cells at 5 uM incubated for 24 hrs by Annexin-V/PI staining based flow cytometry (Rvb=94.0%); type: functional; details: read-out: Activity
HepG2 [32] = experiment: Induction of apoptosis in human HepG2 cells assessed as increase in p21 level at 0.625 to 2.5 uM incubated for 24 hrs by Western blot analysis; type: functional, cell-based; details: dose 0.625-2.5 µM
HepG2 [33] = experiment: Induction of apoptosis in human HepG2 cells assessed as total apoptotic cells at 0.625 uM incubated for 24 hrs by Annexin-V/PI staining based flow cytometry (Rvb=5.14%); type: functional
HepG2 [34] = experiment: Induction of apoptosis in human HepG2 cells assessed as total apoptotic cells at 1.25 uM incubated for 24 hrs by Annexin-V/PI staining based flow cytometry (Rvb=5.14%); type: functional
HepG2 [35] = experiment: Induction of apoptosis in human HepG2 cells assessed as total apoptotic cells at 2.5 uM incubated for 24 hrs by Annexin-V/PI staining based flow cytometry (Rvb=5.14%); type: functional
HepG2 [36] = experiment: Induction of apoptosis in human HepG2 cells assessed as total apoptotic cells at 5 uM incubated for 24 hrs by Annexin-V/PI staining based flow cytometry (Rvb=5.14%); type: functional

Compound: CC(=O)Nc1ccc(Oc2ccc(F)cc2F)c(-c2ccc3[nH]c(=O)c(C)nc3c2)c1
- IC50 [1]: 82.3 nM
- IC50 (HepG2 [2]): 1130 nM
- inhibition (HepG2 [3]): Dose-Dependent Effect
- inhibition (HepG2 [4]): Dose-Dependent Effect
- inhibition at 10 µM (HepG2 [5]): 80%
- inhibition (HepG2 [6]): Dose-Dependent Effect
- Activity (HepG2 [7]): Dose-Dependent Effect
- Activity (HepG2 [8]): Dose-Dependent Effect
- Activity (HepG2 [9]): Dose-Dependent Effect
- Activity (HepG2 [10]): 46.1%
- Activity (HepG2 [11]): 20%
- Activity (HepG2 [12]): 15.5%
- Activity (HepG2 [13]): 51%
- Activity (HepG2 [14]): 10.2%
- Activity (HepG2 [15]): 22.6%
- Activity (HepG2 [16]): 53.3%
- Activity (HepG2 [17]): 9.5%
- Activity (HepG2 [18]): 24.4%
- Activity (HepG2 [19]): 12.4%
- Activity (HepG2 [20]): 21%
- Activity (HepG2 [21]): 0.8%
- Activity (HepG2 [22]): 0.83%
- Activity (HepG2 [23]): 0.84%
- Activity (HepG2 [24]): 6.32%
- Activity (HepG2 [25]): 7.22%
- Activity (HepG2 [26]): 1.37%
- Activity (HepG2 [27]): 1.39%
- Activity (HepG2 [28]): 1.26%
- viability at 1.25 µM (HepG2 [29]): 91.5%
- viability at 2.5 µM (HepG2 [30]): 90.6%
- viability at 5 µM (HepG2 [31]): 87.5%
- Activity (HepG2 [32]): Dose-Dependent Effect
- Activity (HepG2 [33]): 6.26%
- Activity (HepG2 [34]): 7.66%
- Activity (HepG2 [35]): 8.61%
- Activity (HepG2 [36]): 11.66%
